Data published in patent publication US7846930B2, “Diaryl-substituted tetrahydroisoquinolines as histamine H3 receptor and serotonin transporter modulators” (Janssen Pharmaceutica NV, priority 2007, dated 2010).
Structures can show the parent of a compound that is named as a salt.

Columns and labels:
[1] = target: T1, human SERT (HEK293 membranes) (Homo sapiens, UniProt P31645); assay: Human SERT 3H-citalopram binding; settings: HEK293 membranes expressing human SERT, rt 1 h
T1 construct: expressed in transfected cells; host or cells: HEK293
Protocol: Homogenized HEK293 (Human Embryonic Kidney) membranes expressing the human SERT were incubated with ^3H-citalopram (SERT) at rt for 1 h in 50 mM Tris, 120 mM NaCl, 5 mM KCl (pH 7.4). Nonspecific binding was determined in the presence of 10 μM fluoxetine for the SERT. The membranes were washed and the radioactivity was counted as above. Calculations for Ki at the SERT were based on a Kd value for ^3H-citalopram and a ligand concentration of 3.1 nM.

[2] = target: T2, cloned human H3 receptors, stably expressed in SK-N-MC cells (Homo sapiens, UniProt Q9Y5N1); assay: H3 receptor binding
T2 construct: expressed in transfected cells
Protocol: Binding of compounds to the cloned human H3 receptors, stably expressed in SK-N-MC cells, was performed as described by Barbier, A. J. et al. (Br. J. Pharmacol. 2004, 143(5), 649-661).

Rat brain SERT = target: T3, Rat brain SERT (Rattus norvegicus, UniProt P31652); assay: Rat brain SERT [3H]-citalopram binding; settings: rat brain membranes, 0.6 nM [3H]-Citalopram, 60 min at 25° C.
T3 construct: A rat brain without cerebellum (Zivic Laboratories, Inc.-Pittsburgh, Pa.) was homogenized; tissue Zivic Laboratories, Inc; host or cells: rat brain without cerebellum, membrane preparation
Protocol: A rat brain without cerebellum (Zivic Laboratories, Inc.-Pittsburgh, Pa.) was homogenized in a 52.6 mM Tris pH 8/126.4 mM NaCl/5.26 mM KCl mixture and centrifuged at 1,000 rpm for 5 min. The supernatant was removed and re-centrifuged at 15,000 rpm for 30 min. Pellets were re-homogenized in a 52.6 mM Tris pH8/126.4 mM NaCl/5.26 mM KCl mixture. Membranes were incubated with 0.6 nM [^3H]-Citalopram plus/minus test compounds for 60 min at 25° C. and harvested by rapid filtration over GF/C glass fiber filters (pretreated with 0.3% polyethylenimine) followed by four washes with ice-cold buffer. Nonspecific binding was defined in the presence of 100 μM fluoxetine. IC50 values were determined by a single site curve-fitting program (GraphPad, San Diego, Calif.) and converted to Ki values based on a [^3H]-Citalopram Kd of 0.6 nM and a ligand concentration of 0.6 nM.

T1 sequence (P31645 whole entry): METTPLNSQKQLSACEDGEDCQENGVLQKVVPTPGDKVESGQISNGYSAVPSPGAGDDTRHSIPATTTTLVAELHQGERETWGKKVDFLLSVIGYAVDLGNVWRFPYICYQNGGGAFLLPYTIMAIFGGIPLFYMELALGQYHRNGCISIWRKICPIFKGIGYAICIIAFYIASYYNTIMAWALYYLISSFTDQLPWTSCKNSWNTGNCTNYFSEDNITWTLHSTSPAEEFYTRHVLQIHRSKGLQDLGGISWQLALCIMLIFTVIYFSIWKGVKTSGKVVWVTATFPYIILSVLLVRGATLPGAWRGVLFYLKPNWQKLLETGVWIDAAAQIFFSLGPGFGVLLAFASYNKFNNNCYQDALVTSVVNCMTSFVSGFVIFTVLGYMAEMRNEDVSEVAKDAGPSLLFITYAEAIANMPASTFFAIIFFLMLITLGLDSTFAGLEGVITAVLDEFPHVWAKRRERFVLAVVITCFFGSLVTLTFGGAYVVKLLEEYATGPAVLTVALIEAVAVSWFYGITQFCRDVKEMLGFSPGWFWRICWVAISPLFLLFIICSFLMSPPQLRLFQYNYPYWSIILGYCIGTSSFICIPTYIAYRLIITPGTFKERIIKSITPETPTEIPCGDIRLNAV
T2 sequence (Q9Y5N1 whole entry): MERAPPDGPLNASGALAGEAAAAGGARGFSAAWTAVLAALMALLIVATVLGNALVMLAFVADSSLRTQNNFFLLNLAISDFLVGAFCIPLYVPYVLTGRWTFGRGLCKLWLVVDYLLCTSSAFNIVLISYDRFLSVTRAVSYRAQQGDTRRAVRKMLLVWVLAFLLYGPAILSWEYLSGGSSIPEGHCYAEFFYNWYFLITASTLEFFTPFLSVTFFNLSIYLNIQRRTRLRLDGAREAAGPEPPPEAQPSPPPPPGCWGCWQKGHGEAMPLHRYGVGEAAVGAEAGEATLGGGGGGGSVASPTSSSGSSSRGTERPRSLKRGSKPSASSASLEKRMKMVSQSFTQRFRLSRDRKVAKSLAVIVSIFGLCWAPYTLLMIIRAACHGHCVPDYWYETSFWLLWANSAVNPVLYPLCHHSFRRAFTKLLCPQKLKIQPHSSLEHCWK
T3 sequence (P31652 whole entry): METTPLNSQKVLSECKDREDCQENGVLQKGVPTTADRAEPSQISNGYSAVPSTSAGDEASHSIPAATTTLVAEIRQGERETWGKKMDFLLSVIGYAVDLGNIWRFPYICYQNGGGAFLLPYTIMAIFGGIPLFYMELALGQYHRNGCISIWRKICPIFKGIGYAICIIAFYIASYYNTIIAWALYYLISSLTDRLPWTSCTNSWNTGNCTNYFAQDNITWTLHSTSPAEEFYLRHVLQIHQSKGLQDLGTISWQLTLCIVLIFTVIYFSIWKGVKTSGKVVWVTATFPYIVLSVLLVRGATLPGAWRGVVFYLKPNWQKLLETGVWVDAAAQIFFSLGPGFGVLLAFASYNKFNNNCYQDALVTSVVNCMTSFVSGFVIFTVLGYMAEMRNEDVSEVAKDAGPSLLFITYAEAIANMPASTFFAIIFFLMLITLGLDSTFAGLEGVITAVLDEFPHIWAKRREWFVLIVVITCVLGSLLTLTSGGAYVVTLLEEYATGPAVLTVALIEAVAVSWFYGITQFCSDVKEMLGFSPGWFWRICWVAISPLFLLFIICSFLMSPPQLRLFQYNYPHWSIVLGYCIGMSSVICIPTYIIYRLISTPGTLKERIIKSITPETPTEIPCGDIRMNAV

Compound	Ki [1] [nM]	Ki [2] [nM]	Ki (Rat brain SERT) [nM]
CSc1ccc(C2CN(C)Cc3cc(Oc4nc(CN5CCCCC5)cs4)ccc32)cc1 (stereo not shown) [Example 6, 2-Methyl-4-(4-methylsulfanyl-phenyl)-7-(4-piperidin-1-ylmethyl-thiazol-2-yloxy)-1,2,3,4-tetrahydro-isoquinoline]	4.3	20.7	5.2
CSc1ccc(C2CN(C)Cc3cc(Oc4cccc(CN5CCCCC5)c4)ccc32)cc1 (stereo not shown) [Example 1A, 2-Methyl-4-(4-methylsulfanyl-phenyl)-7-(3-piperidin-1-ylmethyl-phenoxy)-1,2,3,4-tetrahydro-isoquinoline trifluoroacetic acid salt]	17.7	18	11.7
CSc1ccc(C2CN(C)Cc3cccc(Oc4cncc(CN5CCCCC5)c4)c32)cc1 (stereo not shown) [Example 4B, 2-Methyl-4-(4-methylsulfanyl-phenyl)-5-(5-piperidin-1-ylmethyl-pyridin-3-yloxy)-1,2,3,4-tetrahydro-isoquinoline Trifluoroacetic Acid Salt]	262	511	174
CSc1ccc(C2CN(C)Cc3cc(Oc4ccc(CN5CCCCC5)cn4)ccc32)cc1 (stereo not shown) [Example 7, 2-Methyl-4-(4-methylsulfanyl-phenyl)-7-(5-piperidin-1-ylmethyl-pyridin-2-yloxy)-1,2,3,4-tetrahydro-isoquinoline]	2.3	8.2	4.5
CSc1ccc(C2CN(C)Cc3cc(Oc4ccc(CN5CCOCC5)cn4)ccc32)cc1 (stereo not shown) [Example 10, 2-Methyl-4-(4-methylsulfanyl-phenyl)-7-(5-morpholin-4-ylmethyl-pyridin-2-yloxy)-1,2,3,4-tetrahydro-isoquinoline]	7.9	260	11
CSc1ccc(C2CN(C)Cc3cc(Oc4ncc(CN5CCCCC5)s4)ccc32)cc1 (stereo not shown) [Example 13, 2-Methyl-4-(4-methylsulfanyl-phenyl)-7-(5-piperidin-1-ylmethyl-thiazol-2-yloxy)-1,2,3,4-tetrahydro-isoquinoline]	3.2	20.7	4
CSc1ccc(C2CN(C)Cc3cc(Oc4cccc(CN5CCCCC5)n4)ccc32)cc1 (stereo not shown) [Example 2, 2-Methyl-4-(4-methylsulfanyl-phenyl)-7-(6-piperidin-1-ylmethyl-pyridin-2-yloxy)-1,2,3,4-tetrahydro-isoquinoline Trifluoroacetic Acid Salt]	22	51	11.7
CSc1ccc(C2CN(C)Cc3cc(Oc4ccnc(CN5CCCCC5)c4)ccc32)cc1 (stereo not shown) [Example 3A, 2-2-Methyl-4-(4-methylsulfanyl-phenyl)-7-(2-piperidin-1-ylmethyl-pyridin-4-yloxy)-1,2,3,4-tetrahydro-isoquinoline Trifluoroacetic Acid Salt]	10.4	323	25.7
CSc1ccc(C2CN(C)Cc3cc(Oc4ccc(CN5CCC(F)CC5)cn4)ccc32)cc1 (stereo not shown) [Example 12, 7-[5-(4-Fluoro-piperidin-1-ylmethyl)-pyridin-2-yloxy]-2-methyl-4-(4-methylsulfanyl-phenyl)-1,2,3,4-tetrahydro-isoquinoline]	6.5	110	14.3
CSc1ccc(C2CN(C)Cc3cccc(Oc4ccnc(CN5CCCCC5)c4)c32)cc1 (stereo not shown) [Example 3B, 2-Methyl-4-(4-methylsulfanyl-phenyl)-5-(2-piperidin-1-ylmethyl-pyridin-4-yloxy)-1,2,3,4-tetrahydro-isoquinoline Trifluoroacetic Acid Salt]	157	265	182
CSc1ccc(C2CN(C)Cc3cccc(Oc4cccc(CN5CCCCC5)c4)c32)cc1 (stereo not shown) [Example 1B, 2-Methyl-4-(4-methylsulfanyl-phenyl)-5-(3-piperidin-1-ylmethyl-phenoxy)-1,2,3,4-tetrahydro-isoquinoline Trifluoroacetic Acid Salt]	616	253	403
CSc1ccc(C2CN(C)Cc3cc(Oc4ccc(CN5CCCCC5)cc4)ccc32)cc1 (stereo not shown) [Example 9, 2-Methyl-4-(4-methylsulfanyl-phenyl)-7-(4-piperidin-1-ylmethyl-phenoxy)-1,2,3,4-tetrahydro-isoquinoline]	3.8	22.7	4.3
CSc1ccc(C2CN(C)Cc3cc(Oc4nc(CN5CCOCC5)cs4)ccc32)cc1 (stereo not shown) [Example 11, 2-Methyl-4-(4-methylsulfanyl-phenyl)-7-(4-morpholin-4-ylmethyl-thiazol-2-yloxy)-1,2,3,4-tetrahydro-isoquinoline]	–	201	–
CSc1ccc(C2CN(C)Cc3cc(Oc4cc(CN5CCCCC5)ccn4)ccc32)cc1 (stereo not shown) [Example 5, 2-Methyl-4-(4-methylsulfanyl-phenyl)-7-(4-piperidin-1-ylmethyl-pyridin-2-yloxy)-1,2,3,4-tetrahydro-isoquinoline]	2.4	34.3	8.7
CSc1ccc(C2CN(C)Cc3cc(Oc4ccc(CN5CCCCC5)nc4)ccc32)cc1 (stereo not shown) [Example 8, 2-Methyl-4-(4-methylsulfanyl-phenyl)-7-(6-piperidin-1-ylmethyl-pyridin-3-yloxy)-1,2,3,4-tetrahydro-isoquinoline]	8	24.3	7.5
